Holding throughout (format): in vivo
In experiment [1] the test system is Solanum nigrum (SOLNI). Nature of the experiment: Further testing, post-emergence application. To be noted: 1000 g/h, after 13 days. Here is the method:
(§1) Seeds of a variety of test species are sown in standard soil in pots (Lolium perenne (LOLPE), Solanum nigrum (SOLNI), Amaranthus retoflexus (AMARE), Setaria faberi (SETFA), Echinochloa crus-galli (ECHCG), Ipomoea hederacea (IPOHE)). After cultivation for one day (pre-emergence) or after 8 days cultivation (post-emergence) under controlled conditions in a glasshouse (at 24/16° C., day/night; 14 hours light; 65% humidity), the plants are sprayed with an aqueous spray solution derived from the formulation of the technical active ingredient in acetone/water (50:50) solution containing 0.5% Tween 20 (polyoxyethelyene sorbitan monolaurate, CAS RN 9005-64-5). Compounds are applied at 1000 g/h unless otherwise stated. The test plants are then grown in a glasshouse under controlled conditions in a glasshouse (at 24/16° C., day/night; 14 hours light; 65% humidity) and watered twice daily. After 13 days for pre and post-emergence, the test is evaluated for the percentage damage caused to the plant. The biological activities are shown in the following table on a five point scale (5=80-100%; 4=60-79%; 3=40-59%; 2=20-39%; 1=0-19%).

Experiment [2] deals with Setaria faberi (SETFA). Nature of the experiment: Further testing, post-emergence application. As to conditions: 1000 g/h, after 13 days. The procedure: as §1
Experiment [3] deals with Lolium perenne (LOLPE). The experiment in a line: Further testing, post-emergence application. To be noted: 1000 g/h, after 13 days. Here is the method:
as §1

Experiment [4] concerns Ipomoea hederacea (IPOHE). The experiment in a line: Further testing, post-emergence application. To be noted: 1000 g/h, after 13 days. Here is the method: as §1
In experiment [5] the test system is Amaranthus retoflexus (AMARE). Nature of the experiment: Further testing, post-emergence application. As to conditions: 1000 g/h, after 13 days. The procedure: as §1
The subject of experiment [6] is Echinochloa crus-galli (ECHCG). Nature of the experiment: Further testing, post-emergence application. As to conditions: 1000 g/h, after 13 days. The procedure:
as §1

Experiment [7] has as its system Solanum nigrum (SOLNI). Nature of the experiment: Further testing, pre-emergence application. As to conditions: 1000 g/h, after 13 days. Here is the method:
as §1

Experiment [8] concerns Setaria faberi (SETFA). Nature of the experiment: Further testing, pre-emergence application. As to conditions: 1000 g/h, after 13 days. The procedure:
as §1

Experiment [9] relates to Lolium perenne (LOLPE). The experiment in a line: Further testing, pre-emergence application. As to conditions: 1000 g/h, after 13 days. Here is the method: as §1
Experiment [10] has as its system Ipomoea hederacea (IPOHE). The experiment in a line: Further testing, pre-emergence application. To be noted: 1000 g/h, after 13 days. The procedure: as §1
Experiment [11] relates to Amaranthus retoflexus (AMARE). Nature of the experiment: Further testing, pre-emergence application. To be noted: 1000 g/h, after 13 days. The procedure: as §1
The test system of experiment [12] is Echinochloa crus-galli (ECHCG). The experiment in a line: Further testing, pre-emergence application. As to conditions: 1000 g/h, after 13 days. The procedure: as §1
In a further experiment the test system is Bidens pilosa (BIDPI). The experiment in a line: Comparative testing, glasshouse herbicide test, spray one day after sowing. Here is the method: (§2) Seeds of a variety of test species are sown in standard soil in pots. After cultivation for one day under controlled conditions in a glasshouse (at 24/16° C., day/night; 14 hours light; 65% humidity), an aqueous spray solution derived from the formulation of the technical active ingredient in 0.6 ml acetone and 45 ml formulation solution containing 10.6% Emulsogen EL (Registry number 61791-12-6), 42.2% N-methyl pyrrolidone, 42.2% dipropylene glycol monomethyl ether (CAS RN 34590-94-8) and 0.2% X-77 (CAS RN 11097-66-8) is applied.
(§3) The test plants are then grown in a glasshouse under controlled conditions in a glasshouse (at 24/16° C., day/night; 14 hours light; 65% humidity) and watered twice daily. After 21 days, the test is evaluated (100=total damage to plant; 0=no damage to plant). Test plants (weed species) include: Alopecurus myosuroides (ALOMY), Bidens pilosa (BIDPI), Euphorbia heterophylla (EPHHL), Lolium perenne (LOLPE), Panicum milaceum (PANMI), Sida spinosa (SIDSP) and Stellaria media STEME).

For another experiment, the system named is Sida spinosa (SIDSP). Described as above. The procedure:
as §2, §3

Experiment [13] relates to Alopecurus myosuroides (ALOMY). The experiment is described as above. Here is the method:
as §2, §3

The next experiment concerns Panicum milaceum (PANMI). The experiment is described as above. Here is the method:
as §2, §3

The next experiment deals with Stellaria media (STEME). The description is as above. Here is the method:
as §2, §3

In experiment [14] the test system is Lolium perenne (LOLPE). Described as above. Here is the method:
as §2, §3

Experiment [15] concerns Euphorbia heterophylla (EPHHL). The description is as above. The procedure: as §2, §3
Setting [16] is: Rate 125, evaluated after 21 days.
Where [17] appears, read: Rate 250, evaluated after 21 days.

The values that follow come from patent US10512268B2, “Herbicidal compounds” (Syngenta Participations AG, priority 2015, dated 2019).

SMILES strings stand for the structures.

Regarding `Cn1nnnc1NC(=O)c1nn(C)c(=O)c(C2CCCCC2)c1Cl` [Compound 1.001], the “percentage damage caused to the plant, five point scale” value (in the experiment with Solanum nigrum (SOLNI) [1]; with Setaria faberi (SETFA) [2]; with Lolium perenne (LOLPE) [3]; in experiment [4]; in experiment [5]; in experiment [6]) was 5 (5=80-100%) in each case. Besides, the “percentage damage caused to the plant, five point scale” value (in the experiment on Solanum nigrum (SOLNI) [7]; in the experiment with Setaria faberi (SETFA) [8]; with Lolium perenne (LOLPE) [9]; in experiment [10]; in [11]; in [12]) was 5 (5=80-100%) each time. For the same compound, the “damage to plant (100=total damage to plant; 0=no damage to plant)” value with Bidens pilosa (BIDPI) (setting [16]) was found to be 100; in the experiment on Bidens pilosa (BIDPI) (setting [17]) it was 100; in the experiment on Sida spinosa (SIDSP) (setting [16]) it was 90; in the experiment with Sida spinosa (SIDSP) (setting [17]), 90; in experiment [13] (setting [16]) it was 40; in experiment [13] (setting [17]) it was 40. Further, the “damage to plant (100=total damage to plant; 0=no damage to plant)” value in the experiment with Panicum milaceum (PANMI) (setting [16]) came out at 80; in the experiment with Panicum milaceum (PANMI) (setting [17]) it was 80; in the experiment on Stellaria media (STEME) (setting [16]) it was 100; in the experiment with Stellaria media (STEME) (setting [17]), 100; in the experiment on Lolium perenne (LOLPE) [14] (setting [16]) it was 60; in the experiment on Lolium perenne (LOLPE) [14] (setting [17]) it was 60. For the same compound, the “damage to plant (100=total damage to plant; 0=no damage to plant)” value in experiment [15] (setting [16]) and in experiment [15] (setting [17]) was 90 in each case.
Regarding `Cn1nc(C(=O)C2C(=O)CCCC2=O)c(Cl)c(C2CCCCC2)c1=O` [Compound A, 2-(4-chloro-5-cyclohexyl-1-methyl-6-oxo-pyridazine-3-carbonyl)cyclohexane-1,3-dione, reference compound], the “damage to plant (100=total damage to plant; 0=no damage to plant)” value in the experiment on Bidens pilosa (BIDPI) (setting [16]) stood at 0; in the experiment with Bidens pilosa (BIDPI) (setting [17]), 40; in the experiment with Sida spinosa (SIDSP) (setting [16]), 0; in the experiment on Sida spinosa (SIDSP) (setting [17]), 0; in experiment [13] (setting [16]), 0; in experiment [13] (setting [17]), 20. Further, the “damage to plant (100=total damage to plant; 0=no damage to plant)” value in the experiment with Panicum milaceum (PANMI) (setting [16]) is reported as 0; with Panicum milaceum (PANMI) (setting [17]), 0; in the experiment on Stellaria media (STEME) (setting [16]), 50; in the experiment on Stellaria media (STEME) (setting [17]) it was 60; with Lolium perenne (LOLPE) [14] (setting [16]) it was 10; with Lolium perenne (LOLPE) [14] (setting [17]), 20. Further, the “damage to plant (100=total damage to plant; 0=no damage to plant)” value is given as 0 in experiment [15] (setting [16]) and 20 in experiment [15] (setting [17]).
